Data set [1] in a line: logP by HPLC on reversed phase columns (EEC directive 79/831 Annex V.A8). Format: physicochemical. As to conditions: method [a]: LC-MS at pH 2.7, 0.1% formic acid in water / acetonitrile.
The test system of another data set is Uromyces appendiculatus. The data set is described as follows: In vivo preventive test on Uromyces appendiculatus (bean rust). The note with it: preventive, bean plants, dose of 500 ppm, grading 11 days after contamination. How it is done: Bean plants (“Saxa” variety), sown in starter cups on a 50/50 peat soil-pozzolana substrate and grown at 24° C., are treated at the 2-leaf stage (9 cm height) by spraying with the active ingredient prepared as described above. Plants, used as controls, are treated with the mixture of acetone/tween/DMSO/water not containing the active material. After 24 hours, the plants are contaminated by spraying the leaves with an aqueous suspension of Uromyces appendiculatus spores (150 000 spores per ml). The spores are collected from infected plants and are suspended in water containing 2.5 ml/1 of Tween 80 at 10%. […] Grading (% of efficacy) is carried out 11 days after the contamination, in comparison with the control plants.

In a further data set the test system is Puccinia recondita. The data set can be described thus: In vivo preventive test on Puccinia recondita (brown rust on wheat). The note with it: 500 ppm, wheat plants sprayed 24 h before contamination, graded 12 days after contamination. How it is done: Wheat plants (“Scipion” variety), sown in starter cups on a 50/50 peat soil-pozzolana substrate and grown at 22° C., are treated at the 1-leaf stage (10 cm height) by spraying with the active ingredient prepared as described above. Plants, used as controls, are treated with the mixture of acetone/tween/DMSO/water not containing the active material. After 24 hours, the plants are contaminated by spraying the leaves with an aqueous suspension of Puccinia recondita spores (100 000 spores per ml). The spores are collected from an infected plant and are suspended in water to containing 2.5 ml/l of Tween 80 at 10%. […] Grading (% of efficacy) is carried out 12 days after the contamination, in comparison with the control plants.

A further data set has as its system Sphaerotheca fuliginea. The data set can be described thus: In vivo preventive test on Sphaerotheca fuliginea (powdery mildew on cucurbits). As to conditions: 500 ppm, gherkin plants sprayed 24 h before contamination, graded 12 days after contamination. The protocol: Gherkin plants (“Vert petit de Paris” variety), sown in starter cups on a 50/50 peat soil-pozzolana substrate and grown at 24° C., are treated at the Z11 cotyledon stage by spraying with the active ingredient prepared as described above. Plants, used as controls, are treated with the mixture of acetone/tween/DMSO/water not containing the active material. After 24 hours, the plants are contaminated by spraying the cotyledons with an aqueous suspension of Sphaerotheca fuliginea spores (100 000 spores per ml). The spores are collected from infected plants. […] Grading (% of efficacy) is carried out 12 days after the contamination, in comparison with the control plants.

[2] abbreviates: compounds of formula (I), Table 1.
Where [3] appears, read: amines of formula (III-a), Table 2.

As to `CCc1nn(C)c(F)c1C(=O)Nc1cccc2c1CC(C)(C)C2C` (centres unmarked) [Example 14], in data set [1] (setting [2]), the logP is 3.99[a]. Also, the Eff. % in the data set with Uromyces appendiculatus is 100%; in the data set on Puccinia recondita, 98%.
As to `CC(C)c1nn(C)cc1C(=O)Nc1cccc2c1CC(C(C)C)C2(C)C` (racemic) [Example 61], the logP in data set [1] (setting [2]) is 4.56[a].
Consider `Cc1nn(C)c(C)c1C(=O)Nc1cccc2c1CC(C(C)C)C2(C)C` (centres unmarked) [Example 42], for which the Eff. % in the data set with Sphaerotheca fuliginea, in the data set on Uromyces appendiculatus and in the data set on Puccinia recondita was 100% throughout. The logP in data set [1] (setting [2]) was 3.87[a].
Regarding `CC(C)C1Cc2cccc(N)c2C1C` (centres unmarked) [III-a-9], in data set [1] (setting [3]), the logP is 2.9[a].
As for `CCc1nn(C)c(Cl)c1C(=O)Nc1cccc2c1CC(C)C2(C)C` (centres unmarked) [Example 7], the logP in data set [1] (setting [2]) is 4.31[a]. Moreover, the values for the Eff. % in the data set with Uromyces appendiculatus and in the data set on Puccinia recondita were 100% and 96%, respectively.
For `CCC1Cc2c(NC(=O)c3cnn(C)c3C)cccc2C1(C)C` (centres unmarked) [Example 59], in that order: 3.42[a], 100% and 89%.
Take `CCC1(CC)Cc2c(NC(=O)c3c(C)nn(C)c3F)cccc2C1C` (racemic) [Example 70]: the Eff. % in the data set on Sphaerotheca fuliginea is given as 98%; in the data set on Uromyces appendiculatus, 100%; in the data set with Puccinia recondita, 98%. For the same molecule, the logP in data set [1] (setting [2]) was 4.32[a].
Regarding `CC(C)C1Cc2c(N)cccc2C1(C)C` (racemic) [Example III-a-2], the logP in data set [1] (setting [3]) is 2.8[a].
`CC1c2cccc(N)c2CC12CCCC2` (centres unmarked) [Example III-a-7, 1′-methyl-1′,3′-dihydrospiro[cyclopentane-1,2′-inden]-4′-amine]: the chromatographic logP in data set [1] (reversed phase HPLC columns, amines of formula (III-a), Table 2, read-out: logP) was found to be 2.39.
As to `CON=C1c2cccc(N)c2CC1(C)C` [III-a-12], the logP in data set [1] (setting [3]) was 2.08[a].
As to `CC1Cc2c(N)cccc2C1(C)C` (racemic) [Example III-a-3], the logP in data set [1] (setting [3]) is 1.95[a].
`CCc1nn(C)cc1C(=O)Nc1cccc2c1CC(C)C2(C)C` (racemic) [Example 73]: the logP in data set [1] (setting [2]) was 3.27[a]. The Eff. % in the data set on Uromyces appendiculatus was found to be 100%; in the data set on Puccinia recondita, 88%.
For `CCCc1nn(C)c(F)c1C(=O)Nc1cccc2c1CC(CC)C2(C)C` (centres unmarked) [Example 48], in the data set on Sphaerotheca fuliginea, the Eff. % worked out at 94%. Also, the logP in data set [1] (setting [2]) was 4.85[a].
With `CCc1c(C(=O)Nc2cccc3c2CC(CC)C3(C)C)cnn1C` (racemic) [Example 63], the logP in data set [1] (setting [2]) was 3.83[a].
Regarding `Cc1nn(C)c(C)c1C(=O)Nc1cccc2c1CC(C)(C)C2` [Example 43], the logP in data set [1] (setting [2]) is 2.77[a]. In the data set on Puccinia recondita, this molecule displayed an Eff. % of 89%.
In the case of `CCC1(CC)Cc2c(N)cccc2C1C` (centres unmarked) [Example III-a-18], the logP in data set [1] (setting [3]) was 2.63[a].
For `CCC1Cc2c(NC(=O)c3cn(C)nc3C(C)C)cccc2C1(C)C` (racemic) [Example 67], the logP in data set [1] (setting [2]) was 4.18[a].
Consider `CC1Cc2c(NC(=O)c3c(C(F)(F)F)nn(C)c3Cl)cccc2C1(C)C` (centres unmarked) [Example 11], for which the logP in data set [1] (setting [2]) was 4.26[a]. For the same molecule, the figures for the Eff. % with Uromyces appendiculatus and in the data set on Puccinia recondita were 100% and 96%, respectively.
On to `CC1Cc2c(NC(=O)c3c(C(F)(F)F)nn(C)c3C(F)F)cccc2C1(C)C` (racemic) [Example 81], for which the logP in data set [1] (setting [2]) was 4.09[a].
Take `CC1Cc2c(NC(=O)c3c(C(F)(F)F)nn(C)c3F)cccc2C1(C)C` (racemic) [Example 83]: in data set [1] (setting [2]), the logP is 4.09[a]. In addition, the Eff. % in the data set on Uromyces appendiculatus is 100%; in the data set with Puccinia recondita it was 98%.
Regarding `Cc1nn(C)c(Cl)c1C(=O)Nc1cccc2c1CC(C)C2(C)C` (racemic) [Example 80], the logP in data set [1] (setting [2]) was 3.83[a]. For the same molecule, the values for the Eff. % with Uromyces appendiculatus and in the data set on Puccinia recondita were 100% and 98%, respectively.
Regarding `CC(C)C1Cc2c(N)cccc2C1C` (centres unmarked) [Example III-a-5], the logP in data set [1] (setting [3]) was 2.34[a].
The molecule `CON=C1c2cccc(NC(=O)c3c(C)nn(C)c3F)c2CC1(C)C` (mixture of isomers) [Example 34] had an Eff. % in the data set with Puccinia recondita of 71%.
In the case of `CC1Cc2c(NC(=O)c3cn(C)nc3[N+](=O)[O-])cccc2C1(C)C` (racemic) [Example 76], the logP in data set [1] (setting [2]) is 3.67[a].
`CCCc1nn(C)cc1C(=O)Nc1cccc2c1CC(CC)C2(C)C` (racemic) [Example 64]: in data set [1] (setting [2]), the logP is 4.2[a].
Consider `CC1Cc2c(N)cccc2C1C` (centres unmarked) [Example III-a-13], for which the logP in data set [1] (setting [3]) was 1.44[a].
The same measure, in the same setting: to `Nc1cccc2c1CC(C1CCCC1)C2` (centres unmarked) [III-a-11] belongs 2.94[a].
In the case of `Cc1c(C(=O)Nc2cccc3c2CC(C)C3(C)C)c(C(F)(F)Cl)nn1C` (centres unmarked) [Example 72], the logP in data set [1] (setting [2]) is 3.99[a].
As to `CC(C)C1Cc2cccc(N)c2C1` (racemic) [Example III-a-1], the logP in data set [1] (setting [3]) was 2.25[a].
Consider `Cc1nn(C)c(C(F)(F)Cl)c1C(=O)Nc1cccc2c1CC(C(C)C)C2(C)C` (centres unmarked) [Example 53], for which, in data set [1] (setting [2]), the logP was 4.86[a].
Turning to `CC1c2c(N)cccc2C(C)(C)C1C` (centres unmarked) [Example III-a-14], the logP in data set [1] (setting [3]) is 2.4[a].
On the same count and under the same terms, in the case of `Nc1cccc2c1CC1(CCCC1)C2` [III-a-4] it was 2.1[a].
In the case of `CCCc1nn(C)c(F)c1C(=O)Nc1cccc2c1CC(C(C)C)C2(C)C` (racemic) [Example 65], the logP in data set [1] (setting [2]) was 5.29[a].
As to `CCCc1nn(C)cc1C(=O)Nc1cccc2c1CC(C(C)C)C2(C)C` (centres unmarked) [Example 47], in data set [1] (setting [2]), the logP was 4.51[a].
Regarding `CCc1c(C(=O)Nc2cccc3c2CC(C(C)C)C3(C)C)cnn1C` (centres unmarked) [Example 46], in data set [1] (setting [2]), the logP is 4.21[a].
In the case of `CCC1Cc2cccc(N)c2C1` (centres unmarked) [III-a-6], the logP in data set [1] (setting [3]) is 1.76[a].
Take `CCC1Cc2c(NC(=O)c3c(C)nn(C)c3C(F)(F)Cl)cccc2C1(C)C` (centres unmarked) [Example 58]: in data set [1] (setting [2]), the logP was 4.46[a].
Take `Cc1c(C(=O)Nc2cccc3c2CC(C(C)C)C3(C)C)cnn1C` (racemic) [Example 62]: the logP in data set [1] (setting [2]) is 3.73[a]. Moreover, the Eff. % with Uromyces appendiculatus is listed as 99%; in the data set on Puccinia recondita, 81%.
For `Cc1nn(C)c(F)c1C(=O)Nc1cccc2c1CC(C)(C)C2` [Example 44], the Eff. % with Uromyces appendiculatus came to 98%; in the data set on Puccinia recondita it was 78%.
For `CCc1nn(C)cc1C(=O)Nc1cccc2c1CC(CC)(CC)C2C` (racemic) [Example 82], in data set [1] (setting [2]), the logP is 4.06[a].
Regarding `CCC1(CC)Cc2c(NC(=O)c3c(C)nn(C)c3C)cccc2C1C` (centres unmarked) [Example 51], the logP in data set [1] (setting [2]) is 3.85[a].
The same measure, in the same setting: to `CCCc1nn(C)c(F)c1C(=O)Nc1cccc2c1CC(C)C2(C)C` (centres unmarked) [Example 19] belongs 4.39[a].
For `CCC1Cc2c(N)cccc2C1(C)C` (centres unmarked) [Example III-a-17], in data set [1] (setting [3]), the logP is 2.47[a].
As to `CCCc1nn(C)cc1C(=O)Nc1cccc2c1CC(C)C2(C)C` (centres unmarked) [Example 21], in data set [1] (setting [2]), the logP was 3.64[a]. In the data set with Puccinia recondita, the Eff. % is 75%.
As to `CCC1Cc2c(NC(=O)c3c(C(F)(F)F)nn(C)c3C)cccc2C1(C)C` (centres unmarked) [Example 49], the logP in data set [1] (setting [2]) was 4.3[a]. Further, the values for the Eff. % in the data set with Uromyces appendiculatus and in the data set on Puccinia recondita were 99% and 94%, respectively.
As to `Cc1nn(C)c(F)c1C(=O)Nc1cccc2c1CC(C)(C)C2C` (centres unmarked) [Example 60], the Eff. % in the data set with Sphaerotheca fuliginea turned out to be 98%; with Uromyces appendiculatus, 100%; in the data set with Puccinia recondita, 98%. Further, in data set [1] (setting [2]), the logP was 3.5[a].
Molecule `CON=C1c2cccc(NC(=O)c3c(C)nn(C)c3C)c2CC1(C)C` (mixture of isomers) [Example 35] gave an Eff. % in the data set with Puccinia recondita of 79%.
As to `CC1Cc2c(NC(=O)c3c(C4CC4)nn(C)c3Cl)cccc2C1(C)C` (racemic) [Example 78], the logP in data set [1] (setting [2]) was 4.46[a].
Consider `Cc1c(C(=O)Nc2cccc3c2CC(C)C3(C)C)c(C(F)(F)F)nn1C` (centres unmarked) [Example 18], for which the logP in data set [1] (setting [2]) is 3.83[a]. In the data set on Puccinia recondita, this molecule registered an Eff. % of 75%.
Consider `Cc1c(C(=O)Nc2cccc3c2CC(C(C)C)C3(C)C)c(C(F)(F)F)nn1C` (centres unmarked) [Example 54], for which the logP in data set [1] (setting [2]) was 4.66[a]. The Eff. % was determined as 83% in the data set on Uromyces appendiculatus and 81% in the data set on Puccinia recondita.
Regarding `CC(C)c1nn(C)cc1C(=O)Nc1cccc2c1CC(C)C2(C)C` (centres unmarked) [Example 23], in data set [1] (setting [2]), the logP is 3.69[a]. For the same molecule, the Eff. % was 89% in the data set on Uromyces appendiculatus and 81% in the data set with Puccinia recondita.
With `Nc1cccc2c1CC(Cc1ccccc1)C2` (centres unmarked) [Example III-a-8], in data set [1] (setting [3]), the logP is 2.54[a].
`CC1Cc2c(NC(=O)c3cn(C)nc3C(F)(F)C(F)(F)F)cccc2C1(C)C` (racemic) [Example 85]: the logP in data set [1] (setting [2]) was 4.21[a].

Values taken from US9249104B2, “Pyrazole indanyl carboxamides” (BAYER CROPSCIENCE AG, priority 2012, dated 2016).
